Laboratory results as given in patent US20260115187A1, “TRICYCLIC SKELETON COMPOUND AND USE THEREOF IN PREPARATION OF ANTITUMOR DRUG” (ZHONGSHAN HOSPITAL, FUDAN UNIVERSITY, priority 2024, published 2026).
Read-outs that look alike come from different tables or passages of the source.

Columns and labels:
[1] = tested on: PLC/PRF/5 KSR2 OE (PLC cells overexpressing KSR2); experiment: Cell IC50 assay (CCK8 cell viability), PLC/PRF/5 KSR2 OE; type: cell-based; settings: Homo sapiens, read-out: IC50 value of cell viability, PLC/PRF/5 KSR2 OE (PLC cells overexpressing KSR2)
Description: (§1) (1) Cell Preparation: Hepatoma cells (PLC/PRF/5, sourced from the Chinese Academy of Sciences; MHCC97H, sourced from this research institute) in good growth condition are prepared. The cells are trypsinized, diluted, and seeded into 96-well cell culture plates. 1,000-3,000 cells are added per well. The plates are then placed in a cell culture incubator at 37° C. with 5% CO2. Drugs are added after the cells have adhered for 24 h.
(§2) (2) Drug Addition: The drugs are subjected to gradient dilution, typically setting 9 concentrations. Control groups containing no drug medium and medium containing only the drug solvent are also set up. The diluted drugs are added to the cell culture plates seeded the previous day. The plates are incubated for 72 h.
(§3) (3) CCK8 Assay for Cell Viability: CCK8 is mixed with culture medium at a 1:10 ratio. 100 μL of this mixture is added to each well of the cell culture plate. After incubating for 2-4 h, the OD values are measured using a microplate reader.
(§4) (4) Data Analysis: Based on the corresponding OD values, the data are compiled, IC50 curves are plotted, and the IC50 values are obtained.
(§5) (5) IC50 Verification: The theoretical IC50 value is identified from the IC50 curve. Drug concentrations at ½ times, 1 time, and 2 times this theoretical value are used for verification.

[2] = tested on: MHCC97H KSR2 OE (97H cells overexpressing KSR2); experiment: Cell IC50 assay (CCK8 cell viability), MHCC97H KSR2 OE; type: cell-based; settings: Homo sapiens
Description: as §1, §2, §3, §4, §5

[3] = PLC-PRF-5, hepatoma cells, 72 h incubation, CCK8
[4] = hepatoma cells, 72 h incubation, CCK8, read-out: IC50 value of cell viability, MHCC97H KSR2 OE (97H cells overexpressing KSR2)
[5] = read-out: IC50 value of cell viability, MHCC97H KSR2 OE (97H cells overexpressing KSR2)

SMILES	IC50 [1, 3] [µM]	IC50 [2, 4] [µM]	IC50 ([1]; PLC-PRF-5, 72 h) [µM]	IC50 [2, 5] [µM]
CN1CCN(C2CN(CCCNC(=O)c3c4c(nn3C)-c3ccc(Cl)cc3OC4)C2)CC1 [Compound 118]	10	5		
CC(C)N1CCN(C2CCN(CCCNC(=O)c3nn(C)c4c3CSc3ccccc3-4)CC2)CC1 [Compound 60]	2	4		
CN1CCN(C2CCN(CCCNC(=O)c3nn(C)c4c3COc3cc(OC(F)(F)F)ccc3-4)CC2)CC1 [Compound 105]	4	3		
CN1CCN(C2CCN(CCCNC(=O)c3nn(C)c4c3COc3cc(-c5cnn(C)c5)ccc3-4)CC2)CC1 [Compound 95]	2	2		
Cn1nc(C(=O)NCC(F)(F)CN2CCC(N3CCC(F)(F)CC3)CC2)c2c1-c1ccccc1SC2 [Compound 37]	19	28		
CN1CCN(C2CCN(CCCNC(=O)c3n[nH]c4c3COc3cc(Cl)c(C#N)cc3-4)CC2)CC1 [Compound 128]	4	6		
CN1CCN(C2CCN(CCCNC(=O)c3c4c(nn3C)-c3cc(Br)c(Cl)cc3OC4)CC2)CC1 [Compound 102]	1	1		
Cn1nc(C(=O)NCCCN2CCN(c3ccccc3Cl)CC2)c2c1-c1ccccc1SC2 [Compound 22]	15	30		
Cn1nc(C(=O)NCCCN2CCN(C3CCCCC3)CC2)c2c1-c1ccccc1OC2 [Compound 16]	26	46		
Cn1nc(C(=O)N2CC(CN3CCC(N4CCCC4)CC3)C2)c2c1-c1ccccc1SC2 [Compound 49]	7	7		
Cn1nc(C(=O)NCCCN2CCN(c3ccc(C(F)(F)F)cc3)CC2)c2c1-c1ccccc1SC2 [Compound 26]	14	> 100		
Cn1nc(C(=O)NCCCN2CCN(CC3CC3)CC2)c2c1-c1ccccc1SC2 [Compound 5]			25	44
CN1CCN(C2CCN(CCCNC(=O)c3c4c(nn3C)-c3ccc(Cl)cc3OC4)CC2)CC1 [Compound 117]	6	0.7		
CN1CCN(C2CCN(CCCNC(=O)c3nn(C)c4c3COc3cc(-c5cn[nH]c5)ccc3-4)CC2)CC1 [Compound 127]	8	4		
CN1CCN(C2CCN(CCCNC(=O)c3nn(CC(C)(C)O)c4c3CSc3ccccc3-4)CC2)CC1 [Compound 90]	21	34		
CC(CNC(=O)c1nn(C)c2c1CSc1ccccc1-2)CN1CCN(c2ccccc2)CC1 (stereo not drawn) [Compound 40]	21	> 100		
CN(CCCN1CCN(C2CCCCC2)CC1)C(=O)c1nn(C)c2c1CSc1ccccc1-2 [Compound 12]	56	86		
Cc1ccc2c(c1)OCc1c-2nn(C)c1C(=O)NCCCN1CCC(N2CCN(C)CC2)CC1 [Compound 116]	18	7		
CN1CCN(C2CCN(CCCNC(=O)c3nn(C)c4c3COc3ccccc3-4)CC2)CC1 [Compound 50]	7	6		

SMILES	IC50 [1, 3] [µM]	IC50 [2, 4] [µM]	IC50 ([1]; PLC-PRF-5, 72 h) [µM]	IC50 [2, 5] [µM]
CN1CCN(C2CCN(CCCNC(=O)c3nn(C)c4c3COc3ccc(Cl)cc3-4)CC2)CC1 [Compound 69]	0.6	5		
CCn1nc(C(=O)NCCCN2CCN(C3CCCCC3)CC2)c2c1-c1ccccc1SC2 [Compound 14]	39	14		
Cn1nc(C(=O)NCCCN2CCC(N3CCOCC3)CC2)c2c1-c1ccccc1SC2 [Compound 42]	43	39		
CCN1CCN(C2CN(C3CC(CNC(=O)c4nn(C)c5c4COc4cc(Cl)ccc4-5)C3)C2)CC1 (stereo not drawn) [Compound 114]	4	2		
Cn1nc(C(=O)NCC(O)CN2CCN(c3ccccc3)CC2)c2c1-c1ccccc1SC2 (stereo not drawn) [Compound 18]	42	40		
Cn1nc(C(=O)NCCCN2CCN(c3ccncc3)CC2)c2c1-c1ccccc1SC2 [Compound 21]	7	6		
CN1CCN(C2CCN(CCCNC(=O)c3n[nH]c4c3COc3cc(Cl)ccc3-4)CC2)CC1 [Compound 125]	1	1		
CN1CCN(C2CN(CCCNC(=O)c3nn(C)c4c3COc3cc(Cl)ccc3-4)C2)CC1 [Compound 86]	6	6		
Cn1nc(C(=O)NCCCN2CCN(c3cccnc3)CC2)c2c1-c1ccccc1SC2 [Compound 20]	29	32		
CN1CCN(C2CCN(CCCNC(=O)c3nn(C)c4c3COc3ccc(C#N)cc3-4)CC2)CC1 [Compound 82]	8	8		
CN1CCN(C2CCN(CCCNC(=O)c3nn(C)c4c3COc3cc(C(F)(F)F)ccc3-4)CC2)CC1 [Compound 91]	2	4		
Cn1nc(C(=O)NCCCN2CCC(N3CCCCC3)C(F)(F)C2)c2c1-c1ccccc1SC2 (stereo not drawn) [Compound 36]	62	71		
CN1CCN(C2CCN(CCCNC(=O)c3nn(C)c4c3COc3cc(Br)ccc3-4)CC2)CC1 [Compound 92]	4	4		
Cn1nc(C(=O)NCC2CC(N3CCC(N4CCCC4)CC3)C2)c2c1-c1ccccc1SC2 (stereo not drawn) [Compound 51]	1	1		
CN(C)C1CN(CCCNC(=O)c2nn(C)c3c2CSc2ccccc2-3)C1 [Compound 54]	6	5		
Cn1nc(C(=O)NCCCN2CCC(N3CCCC3)CC2)c2c1-c1ccccc1SC2 [Compound 38]	3	4		
CCN1CCN(C2CCN(CCCNC(=O)c3nn(C)c4c3CSc3ccccc3-4)CC2)CC1 [Compound 44]	2	0.2		
CN1CCN(C2CCN(CCCNC(=O)c3nn(C)c4c3COc3c(F)cccc3-4)CC2)CC1 [Compound 73]	12	3		
CN1CCN(C2CN(CCCNC(=O)c3n[nH]c4c3COc3cc(Cl)ccc3-4)C2)CC1 [Compound 126]	9	7		

SMILES	IC50 [1, 3] [µM]	IC50 [2, 4] [µM]	IC50 ([1]; PLC-PRF-5, 72 h) [µM]	IC50 [2, 5] [µM]
Cn1nc(C(=O)NCCCN2CCN(C3CCCCC3)CC2)c2c1-c1ccccc1S(=O)(=O)C2 [Compound 7]	85	88		
CN1CCN(C2CCN(CCCNC(=O)c3c4c(nn3C3COC3)-c3ccccc3SC4)CC2)CC1 [Compound 89]	15	32		
Cn1nc(C(=O)NCCCN2CCC(N3CCN(CCC#N)CC3)CC2)c2c1-c1ccccc1SC2 [Compound 79]	57	40		
Cn1nc(C(=O)NCCCN2CC(N3CC[C@H](O)C3)C2)c2c1-c1ccc(Cl)cc1OC2 [Compound 104]	30	41		
Cn1nc(C(=O)NCCCN2CCN(C3CCC3)CC2)c2c1-c1ccccc1SC2 [Compound 6]			42	70
CN1CCN(C2CCN(CCCNC(=O)c3c4c(nn3C)-c3cc(C#N)c(Cl)cc3OC4)CC2)CC1 [Compound 122]	4	5		
Cn1nc(C(=O)NCCCN2CC(N3CCOCC3)C2)c2c1-c1ccc(Cl)cc1OC2 [Compound 98]	18	29		
Cn1nc(C(=O)NCCCN2CCN(c3ncccn3)CC2)c2c1-c1ccccc1SC2 [Compound 28]	11	31		
Cn1nc(C(=O)NCCCN2CCC(N3CCN(C4CC4)CC3)CC2)c2c1-c1ccccc1SC2 [Compound 63]	12	10		
CN1CCN(C2CCN(CCCNC(=O)c3nn(C)c4c3COc3cc(C5CC5)ccc3-4)CC2)CC1 [Compound 93]	3	4		
CN1CCN(C2CCN(CCCNC(=O)c3nn(C)c4c3COc3c(Cl)cccc3-4)CC2)CC1 [Compound 72]	2	2		
CCN1CCN(C2CN(CCCNC(=O)c3nn(C)c4c3COc3cc(Cl)ccc3-4)C2)CC1 [Compound 87]	6	3		
CCN1CCN(C2CCN(CCCNC(=O)c3nn(C)c4c3COc3cc(Cl)ccc3-4)CC2)CC1 [Compound 84]	2	1		
CCN1CCN(C2CN(CCCNC(=O)c3nn(C)c4c3CSc3cc(Cl)ccc3-4)C2)CC1 [Compound 109]	7	10		
Cc1ccc2c(c1)OCc1c(C(=O)NCCCN3CC(N4CCN(C)CC4)C3)nn(C)c1-2 [Compound 121]	18	20		
CCN1CCN(C2CN(C3CC(CNC(=O)c4nn(C)c5c4COc4cc(OC(F)(F)F)ccc4-5)C3)C2)CC1 (stereo not drawn) [Compound 112]	3	4		
Cn1nc(C(=O)NCCCN2CCN(C3CCCCC3)CC2)c2c1-c1ccccc1CC2 [Compound 17]	21	57		
Cn1nc(C(=O)NCCCN2CCN(Cc3ccccc3)CC2)c2c1-c1ccccc1SC2 [Compound 10]			16	38
CCN1CCN(C2CN(C3CC(CNC(=O)c4nn(C)c5c4CSc4cc(Cl)ccc4-5)C3)C2)CC1 (stereo not drawn) [Compound 111]	6	9		
